This note sets out measurements from patent US8182854B2, “Coffee drink composition” (Kao Corporation, priority 2004, dated 2012).

“Also recorded” adds a separate entry of the source.

The test system of the data set is hydrogen peroxide in urine. Description: Amount of hydrogen peroxide in rat urine after forced p.o. administration (FOX assay). The data set is classed as in vivo, SD rats. As for the experimental part: (c) The coffees obtained above in (a) and (b) were each forcibly administered p.o. (10 mL/kg) to six-week-old male SD rats (n=4). Three hours after the administration, urine was collected and the amount of hydrogen peroxide in their urine was measured. The amount of hydrogen peroxide in urine was measured by FOX (ferrous ion oxidation-xylenol orange) assay. (b) To 7-week-old male SD rats (n=4), 2.4 g/kg of instant coffee (Nescafe decaffeinated) (1.6 mg/kg in terms of hydroxyhydroquinone) and 1.6 mg/kg of hydroxyhydroquinone were forcibly administered p.o, respectively. Prior to administration and three hours and six hours after administration, urine was collected from them and the amount of hydrogen peroxide in urine was measured as in Example 2. To seven-week-old male SD rats (n=3), hydroxyhydroquinone (0.1, 0.3, 1 and 3 mg/kg, respectively) was forcibly administered p.o. Prior to administration and three and six hours after administration, urine was collected from them and the amount of hydrogen peroxide in the urine was determined as in Example 2. (c) The coffees obtained above in (a) and (b) (each, 10 mL/kg) were forcibly administered p.o. to seven-week-old male SD rats (n=8). Prior to administration and three and six hours after the administration, urine was collected from them and the amount of hydrogen peroxide in the urine was measured as in Example 2.

As to `Oc1ccc(O)c(O)c1` [hydroxyhydroquinone], under “Example 3, FIG. 3, 7-week-old male SD rats, p.o., 2.4 g/kg instant coffee or 1.6 mg/kg hydroxyhydroquinone, three hours after administration”, the “amount of hydrogen peroxide in urine” value is on record as “significant increase”. Moreover, the “amount of hydrogen peroxide in the body (urine)” value (Example 4, FIG. 4, seven-week-old male SD rats, hydroxyhydroquinone 0.1, 0.3, 1 and 3 mg/kg p.o., urine three and six hours after administration) is recorded as “increases the generation amount of hydrogen peroxide in the body; also recorded: increases dose-dependently”. In addition, the “dose from which the amount of hydrogen peroxide in the body increases” value (Example 4, FIG. 4, seven-week-old male SD rats, p.o.) is not below 0.3 mg/kg.
